The subject of data set [1] is von Hippel-Lindau disease tumor suppressor/GTPase KRas (Homo sapiens), P01116+P40337 [G12C]. Kind of data set: Protac activity at VHL/KRAS G12C mutant in human SW1573 cells assessed as induction of protein degradation by measuring maximal efficacy at […] incubated for 72 hrs by Western blot analysis relative to control. The data set is classed as cell-based. The note with it: dose 2.5 µM. Background: Immunoblotting shows a protein as a band on a membrane.

Data set [2] concerns the target von Hippel-Lindau disease tumor suppressor/GTPase KRas (Homo sapiens, UniProt P01116+P40337, G12C). Kind of data set: Protac activity at VHL/KRAS G12C mutant in human NCI-H2030 cells assessed as degradation of KRAS G12C mutant incubated for 24 hrs by immunoblot assay. The class given is cell-based.
Data set [3] relates to von Hippel-Lindau disease tumor suppressor/GTPase KRas (Homo sapiens), P01116+P40337 [G12C]. Kind of data set: PROTAC activity at VHL/KRAS G12C mutant in human NCI-H2030 cells assessed as induction of protein degradation by measuring maximal efficacy at […] incubated for 24 hrs by Immunoblotting analysis relative to control. The data set is classed as cell-based. The note with it: dose 2.5 µM.

Data set [4] can be described thus: Inhibition of ERK phosphorylation in human NCI-H358 cells harboring KRAS G12C mutant incubated for 6 hrs by Western blot analysis. The class given is cell-based. Conditions: NCI-H358, 6 h.
The test system of data set [5] is GTPase KRas (Homo sapiens), P01116 [G12C]. Kind of data set: Inhibition of KRAS G12C mutant (unknown origin) at 10 uM relative to control.
Data set [6] is described as follows: Inhibition of ERK phosphorylation in human NCI-H358 cells incubated for 3 hrs. The class given is cell-based. The note with it: NCI-H358, 3 h.
Data set [7] concerns the target GTPase KRas (Homo sapiens, UniProt P01116, G12C). Kind of data set: Inhibition of KRAS G12C mutant (unknown origin).
Data set [8] has as its target GTPase KRas (Homo sapiens, UniProt P01116, G12V). Kind of data set: Binding affinity to Cys12 residue of GDP bound human KRAS […] mutant expressed in Escherichia coli BL21 Rosetta cells assessed as dissociation constant by HSQC NMR spectral analysis.
Data set [9] is described as follows: Oral bioavailability in Sprague-Dawley rat. The class given is ADME, organism-based. The note with it: in vivo.
Data set [10] in a line: Volume of distribution at steady state in iv dosed Sprague-Dawley rat by LC-MS/MS analysis. The data set is classed as ADME, organism-based. Conditions: in vivo, read-out: Vdss.
Data set [11] in a line: Oral bioavailability in CD-1 mouse. The data set is classed as ADME, organism-based. The note with it: in vivo.
The nature of data set [12]: Volume of distribution at steady state in iv dosed Beagle dog. The class given is ADME, organism-based, Canis lupus familiaris. The note with it: in vivo, read-out: Vdss.
Data set [13] is described as follows: Oral bioavailability in Beagle dog. The class given is ADME, organism-based, Canis lupus familiaris. The note with it: in vivo.
Data set [14] can be described thus: Clearance in iv dosed CD-1 mouse. The class given is ADME, organism-based. Conditions: in vivo.
A short description of data set [15]: Volume of distribution at steady state in iv dosed CD-1 mouse. The data set is classed as ADME, organism-based. The note with it: in vivo, read-out: Vdss.
A further data set in a line: cells. Conditions: Homo sapiens, MKN-1.
The next data set has as its system NCI-H441. Kind of data set: Antiproliferative activity against human NCI-H441 cells harboring KRAS G12V mutant assessed as reduction in cell viability incubated for 72 hrs by MTT assay. The data set is classed as functional, cell-based. The note with it: NCI-H441, 72 h. On the technique in general: Tetrazolium assays rely on reduction of a dye to a coloured formazan, in cell work by metabolically active cells.

The subject of data set [16] is NCI-H358. Kind of data set: Antitumor activity against human NCI-H358 cells harboring KRAS G12C mutant xenografted in mouse model assessed as tumor growth inhibition at 30 mg/kg, po relative to control. The data set is classed as functional. Also on record: scale not given: the % may be the effect or the level left. In general terms: In xenograft studies the graft and the host belong to different species.

The test system of data set [17] is NCI-H358. Kind of data set: Antitumor activity against human NCI-H358 cells harboring KRAS G12C mutant xenografted in mouse model assessed as tumor growth inhibition at 100 mg/kg, po relative to control. The class given is functional. Also on record: scale not given: the % may be the effect or the level left.
Data set [18] concerns NCI-H358. Kind of data set: Antitumor activity against human NCI-H358 cells harboring KRAS G12C mutant xenografted in mouse model assessed as tumor growth inhibition at 10 mg/kg, po relative to control. The class given is functional. Further details: scale not given: the % may be the effect or the level left.

SMILES strings stand for the structures. Some results are limits rather than exact numbers.

`C=C(F)C(=O)N1CCN(c2nc(OC[C@@H]3CCCN3CCCOCCC(=O)N[C@H](C(=O)N3C[C@H](O)C[C@H]3C(=O)NCc3ccc(-c4scnc4C)cc3)C(C)(C)C)nc3c2CCN(c2cccc4cccc(Cl)c24)C3)C[C@@H]1CC#N`: the maximal effect (Emax) – broadly, the size of the effect at its maximum, as opposed to the concentration needed – is 90% in [1] and 75% in data set [3]. The 50% degradation concentration (DC50) (in general, the concentration at which degradation of the target reaches its halfway point) in data set [2] is 590 nM.
Turning to `C=CC(=O)N1CC2(CC(n3nc(C(C)C)c(-c4c(C)ccc5[nH]ncc45)c3C)C2)C1`, the half-maximal inhibitory concentration (IC50) (as a rule, the concentration that inhibits the measured activity by half) in [4] was determined as 3900 nM.
Consider `C=CC(=O)N1CCN(c2nc(OC[C@@H]3CCCN3C)nc3c2cc(-c2cccc4cccc(C)c24)n3C)C[C@@H]1CC#N`, for which the inhibition – broadly, the percentage by which the read-out fell short of the control – in data set [5] came to 39.8%.
As for `C=CC(=O)N1CCN(c2nc(OC[C@@H]3CCCN3C)nc3c2CCN(c2cccc4ccccc24)C3)CC1`, half-maximal inhibition in [6] (IC50) required 4400 nM.
Turning to `C=CC(=O)N1CCN(c2nc(OCC34CCCN3CCC4)nc3c2cc(-c2cccc4cccc(C)c24)n3C)C[C@@H]1CC#N`, the inhibition in data set [5] was found to be 91.3%. Further, the half-inhibitory concentration (IC50) on GTPase KRas [7] came out at 1540 nM.
Take `C[C@]1(c2nc(-c3ccc(N)cc3)no2)CCCc2sc(N)c(C#N)c21`: the Kd (as a rule, the constant that tells how readily two partners part at equilibrium) on GTPase KRas [8] is < 10000 nM.
In the case of `C=C(F)C(=O)N1CCN(c2nc(OC[C@@H]3CCCN3CCC(=O)NCCC(=O)N[C@H](C(=O)N3C[C@H](O)C[C@H]3C(=O)NCc3ccc(-c4scnc4C)cc3)C(C)(C)C)nc3c2CCN(c2cccc4cccc(Cl)c24)C3)C[C@@H]1CC#N`, the half-maximal degradation concentration (DC50) in data set [2] was determined as 6400 nM. Moreover, the Emax in [3] came out at 85%.
Take `C=C(F)C(=O)N1CCN(c2nc(OC[C@@H]3CCCN3CCC(=O)NCCOCCC(=O)N[C@H](C(=O)N3C[C@H](O)C[C@H]3C(=O)NCc3ccc(-c4scnc4C)cc3)C(C)(C)C)nc3c2CCN(c2cccc4cccc(Cl)c24)C3)C[C@@H]1CC#N`: the Emax in data set [3] came out at 35%.
`C=CC(=O)N1CCN(c2nc(OC[C@@H]3CCCN3C)nc3c2CCN(c2cccc4ccccc24)C3)C[C@@H]1CC#N` registered an IC50 in data set [6] of 10 nM.
Consider `C=CC(=O)N1CC2(CC(n3nc(-c4ccc5[nH]ncc5c4)c(-c4c(Cl)c(C)cc5[nH]ncc45)c3C)C2)C1`, for which it took 20 nM to reach half-maximal inhibition in data set [4] (IC50).
With `Cc1c(C#N)cccc1[C@@H](C)Nc1nnc(C)c2cnc(N3CCOCC3)cc12` [MRTX-0902], the bioavailability in data set [9], in [11] and in data set [13] was 38% in each case. In addition, the Vd in data set [10], in data set [12] and in data set [15] was 0.28 L/kg each time. In data set [14], the clearance – broadly, a measure of how efficiently the substance is removed, as volume per time – worked out at 4.4 mL/min/kg.
`C=CC(=O)N1CC2(CC(n3nc(-c4ccc5c(cnn5C)c4)c(-c4c(Cl)c(C)cc5[nH]ncc45)c3C)C2)C1` [OPNURASIB]: in data set [4], the concentration for half-maximal inhibition (IC50) worked out at 20 nM.
For the compound `C[C@]1(c2nc(-c3cccc(N)c3)no2)CCCc2sc(N)c(C#N)c21`, on GTPase KRas [8], the dissociation constant (Kd) is < 10000 nM.
The compound `C=CC(=O)N1CCN(c2nc(OC[C@@H]3CCCN3C)nc3c2cc(-c2cccc4ccccc24)n3C)C[C@@H]1CC#N` gave an inhibition in data set [5] of 17%.
`Cc1c([C@@H](C)Nc2nnc(C)c3ccc(N4CCNCC4)cc23)cccc1C(F)(F)F` registered a half-inhibitory concentration (IC50) in the data set “cells” of 74 nM.
As for `CC1(C)CCCc2sc(N)c(C#N)c21`, in the data set on NCI-H441, the 50% inhibitory concentration (IC50) is < 10000 nM.
In [4], `C=CC(=O)N1CC2(CC(n3nc(-c4ccccc4)c(-c4c(Cl)c(C)cc5[nH]ncc45)c3C)C2)C1` gave a 50% inhibitory concentration (IC50) of 40 nM.
As to `C=CC(=O)N1CCN(c2nc(OC[C@@]34CCCN3C[C@H](F)C4)nc3c2cc(-c2cccc4cccc(C)c24)n3C)C[C@@H]1CC#N`, the inhibition in data set [5] was found to be 98.6%. Inhibition against GTPase KRas [7] was half-maximal at 340 nM (IC50).
Take `C=C(F)C(=O)N1CCN(c2nc(OC[C@@H]3CCCN3CCOCCOCCC(=O)N[C@H](C(=O)N3C[C@H](O)C[C@H]3C(=O)NCc3ccc(-c4scnc4C)cc3)C(C)(C)C)nc3c2CCN(c2cccc4cccc(Cl)c24)C3)C[C@@H]1CC#N`: the Emax in data set [1] was 50%. The DC50 in data set [2] was > 10000 nM.
Take `C=CC(=O)N1CCN(c2nc(OC[C@@H]3CCCN3C)nc3c2CCN(c2cccc4cccc(Cl)c24)C3)C[C@@H]1CC#N`: the Activity in the data set with NCI-H358 [16] is listed as 89%; with NCI-H358 [17] it was 90%; with NCI-H358 [18], 70%.
Take `C=C(F)C(=O)N1CCN(c2nc(OC[C@@H]3CCCN3CCC(=O)NCCOCCOCCC(=O)N[C@H](C(=O)N3C[C@H](O)C[C@H]3C(=O)NCc3ccc(-c4scnc4C)cc3)C(C)(C)C)nc3c2CCN(c2cccc4cccc(Cl)c24)C3)C[C@@H]1CC#N`: the Emax in [3] came to 30%.
On to `Cc1c([C@@H](C)Nc2nnc(C)c3cnc(N4CCOCC4)cc23)cccc1C(F)(F)F`, for which the IC50 in “cells” stood at 26 nM.
With `N#Cc1c(N)sc2c1CCCC2`, the concentration for half-maximal inhibition (IC50) in the data set with NCI-H441 is 16000 nM.
In the case of `C=C(F)C(=O)N1CCN(c2nc(OC[C@@H]3CCCN3CCCCOCCC(=O)N[C@H](C(=O)N3C[C@H](O)C[C@H]3C(=O)NCc3ccc(-c4scnc4C)cc3)C(C)(C)C)nc3c2CCN(c2cccc4cccc(Cl)c24)C3)C[C@@H]1CC#N`, in data set [1], the Emax turned out to be 90%. Besides, in [2], the 50% degradation concentration (DC50) was determined as 880 nM.

The values above are taken from ChEMBL document CHEMBL5634082, “Recent advances in the development of inhibitors targeting KRAS-G12C and its related pathways” (Eur J Med Chem, 2023).
